In patent US20070274947A1, “Antisense Oligonucleotides Directed to Ribonucleotide Reductase R1 and Uses Thereof in the Treatment of Cancer” (priority 2003, published 2007):
“Also recorded” adds a separate entry of the source.

What was measured:
[1] = system: R1 mRNA; assay: Northern blot of R1 mRNA in MDA-MB-231 cells; assay type: cell-based, human; conditions: 0.2 μM, four hours with Lipofectin, 16 hours recovery
Protocol: Total RNA was isolated using TRIzol reagent (GIBCO BRL) after cells were treated with 0.2 μM SEQ ID NO:1 for four hours in the presence of cationic lipid (Lipofectin reagent, GIBCO BRL), washed with PBS, and incubated for 16 hours to recover in normal medium containing 10% FBS. Northern blot analysis was performed as previously described (Hurta and Wright, 1995). RNA was subjected to electrophoresis through 1% formaldehyde agarose gels followed by transfer to nylon membranes. Blots were hybridized in the presence of a R1 fragment (McClarty et al, 1987). Glyceraldehyde-3-phosphate dehydrogenase (GAPDH) mRNA levels were simultaneously probed for RNA loading controls.

[2] = cynomolgus monkey, in vivo
[3] = system: MDA-CDDP-S4 human in vivo-selected Cisplatin-resistant breast adenocarcinoma cells; assay: Cisplatin-resistant breast adenocarcinoma MDA-CDDP-S4 growth in SCID mice
Protocol: MDA-CDDP-S4 human in vivo-selected Cisplatin-resistant breast adenocarcinoma cells MDA231/CDDPs4) (4×10^6 cells in 100 μl of PBS) were injected into the fat pad (inside of right leg) of 6-7 weeks old female SCID mice. After the size of tumor reached an approximate volume of 100 mm^3, 7-9 days post tumor cell injection, SEQ ID NO:1 was administered by bolus infusion into the tail vein every other day at 10 mg/kg. Control animals received saline alone for the same period. Antitumor effect of SEQ ID NO:1 was further compared to that of Cisplatin or Taxol alone (FIG. 14A) and in combination as indicated in the FIGS. 14B, 14C and 14D. Cisplatin was administered intravenously once a week for three weeks at a dose of 4 mg/kg. Taxol was administered intravenously once a week for three weeks at a dose of 10 mg/kg. Antitumor activities were estimated by the inhibition of tumor volume, which was measured with caliper and each point represents mean tumor volume calculated from 10 animals per experimental group (FIG. 14C). At the end of the study animals were sacrificed, tumor weights taken and mean tumor weights are indicated. […] As expected, treatment with Cisplatin during the same period was ineffective against Cisplatin-resistant tumor.

[4] = system: A2058 (melanoma); assay: Colony forming ability, A2058; assay type: cell-based, human; conditions: 0.2 μM antisense oligonucleotide/lipofectin, 4 hours
Protocol: The effect of SEQ ID NO:1 on the colony forming ability were evaluated in the following human tumor cell lines:
Tumor cells were washed in 5 ml of phosphate buffered saline, pH 7.2, prior to 0.2 μM antisense oligonucleotide/lipofectin treatment for 4 hours. The medium was removed and the cells were gently washed with 5 ml of growth medium. The cells were then cultured in growth medium for seven to ten days. Surviving colonies were visualized by methylene blue staining and colonies of 50 or more cells were scored (Choy et al., 1988 and Huang and Wright, 1994). Results are summarized from 4 to 8 trials for each tumor cell line.

[5] = system: human Burkitt's lymphoma (Raji) cells; assay: Survival of SCID mice bearing human Burkitt's lymphoma (Raji); assay type: in vivo
Protocol: In vivo studies were conducted to assess the therapeutic potential of SEQ ID NO:1 in the treatment of lymphoma. Viable human Burkitt's lymphoma (Raji) cells (5×10^6) collected from subconfluent logarithmically growing cultures were injected i.v. via the tail vein of each animal and disease was allowed to establish for 2 days. SEQ ID NO:1 in normal saline was administered by tail vein injections every second day at a dose of 10 mg/kg. Control animals received saline alone, without oligonucleotide. Treatment with SEQ ID NO:1 was stopped at day 42. The mice in both groups (n−10) were sacrificed at, day 73. Antitumor effects of SEQ ID NO:1 treatment were assessed by the examination of survival of mice (FIG. 18A). All mice died as a consequence of tumor progression within 23 days when left untreated. All SEQ ID NO:1 treated animals, on the other hand, survived beyond day 73 except one mouse which died at day 35. In an independent experiment, mice survived 140 days, even when treatment was stopped at day 70 (FIG. 18B). This experiment also included treatment with a control oligonucleotide, SEQ ID NO:1-SCR (scrambled version of SEQ ID NO:1). The saline and control ODN mice all died from disease progression by day 27. At day 40, the SEQ ID NO:1-treated mice continued treatment every three days until stopping the treatment at day 59. All mice survived to the end of the experimental period.

[6] = system: HT-29 human colon cancer cells; assay: HT-29 colon tumor growth in CD-1 nude mice; assay type: in vivo; conditions: for tumor weight / tumor growth: SEQ ID NO:1 10 mg/kg every other day
Protocol: A. HT-29 human colon cancer cells (3×10^6 cells in 100 μl of PBS) were subcutaneously injected into the right flank of 6-7 weeks old female CD-1 nude mice. After the size of tumor reached an approximate volume of 50 mm^3, 4 days post tumor cell injection, SEQ ID NO:1 was administered by bolus infusion into the tail vein every other day at 10 mg/kg. Control animals received saline alone for the same period. Antitumor effect of SEQ ID NO:1 was further compared to that of mitomycin C alone or that of SEQ ID NO:1 in combination with mitomycin C. Mitomycin C was administered intravenously at days 4, 11 and 18 with a dose of 3.5 mg/kg/week, one hour after the treatments with SEQ ID NO:1. All treatments were stopped at day 22. A day after the last treatment, tumors were excised from the animals and their weights were measured (FIG. 13A). […] The delay in tumor growth achieved with SEQ.
B. HT-29 human colon cancer cells (3×10^6 cells in 100 μl of PBS) were subcutaneously injected into the right flank of 5-6 week old female CD-1 nude mice. After the size of tumor reached an approximate volume of 100 mm^3, 7 days post tumor cell injection, SEQ ID NO:1 was administered by bolus infusion into the tail vein every other day at 10 mg/kg. Control animals received saline alone for the same period. Antitumor effect of SEQ ID NO:1 was further compared to that of CPT-11 alone or that of SEQ ID NO:1 in combination with CPT-11. CPT-11 was administered intraperitoneally for 5 days in a row from day 7-12 with a dose of 20 mg/kg in 100 μl saline. All treatments were stopped at day 32. A day after the last treatment, tumors were excised from the animals and their weights were measured (FIG. 13B).

Substance: 5′-CTCTAGCGTCTTAAAGCCGA-3′ (CTCTAGCGTCTTAAAGCCGA; chemistry not given here) [SEQ ID NO:1]
- R1 mRNA level [1]: specifically decreases R1 mRNA; also recorded: significant decrease; also recorded: decreased R1 mRNA levels
- elimination t1/2 [2]: 2.2 to 2.5 h
- plasma Cl [2]: 0.762 to 1.945 mL/min/kg
- time to Css [2]: consistently achieved at the first or second blood collection timepoint
- tumor weight / tumor growth ([3]; SCID mice, fat pad, SEQ ID NO:1 10 mg/kg every other day, Cisplatin 4 mg/kg, Taxol 10 mg/kg i.v. weekly for three weeks): significant reduction of tumor weight
- delay in tumor growth compared with Taxol ([3]; Taxol 10 mg/kg weekly as positive control): superior to the inhibitory effects observed with Taxol
- inhibition in colony forming ability [4]: greater than 60%
- survival of mice ([5]; FIG. 18A, 10 mg/kg i.v. every second day, stopped at day 42, one mouse died at day 35, untreated died within 23 days): > 73 days
- survival of mice ([5]; independent experiment FIG. 18B, saline mice died by day 27): ≥ 140 days
- delay in tumor growth compared with mitomycin C alone ([6]; FIG. 13A): superior to the inhibitory effects observed with mitomycin C alone
- tumor weight / tumor growth ([6]; FIG. 13A, mitomycin C 3.5 mg/kg/week i.v., stopped day 22): significant delay of tumor growth
- tumor weight / tumor growth ([6]; FIG. 13B, CPT-11 20 mg/kg i.p. 5 days, stopped day 32): significant delay of tumor growth
